The target of one data set is bovine serum albumin (Bos taurus, UniProt P02769). Put plainly: Albumin binding by equilibrium dialysis. The class given is in vitro ADME. To be noted: 5% bovine serum albumin saline solution, 25° C. The protocol:
BA was dissolved at a concentration of […] in 5% bovine serum albumin saline solution and left to stand for 24 hours at 25° C. Two milliliters of this solution was dialyzed in cellulose sacs with a molecular weight cut-off of 12-14 kDa (Spectra/Por; Spectrum Medical Industries Inc., Rancho Dominguez, Calif.) against 25 ml of saline solution. The system was equilibrated by mechanical shaking for 72 hours at 25° C. BA concentrations in the starting solution and in the dialyzed solution were determined by HPLC-ES-MS/MS as reported below.
A general note: Equilibrium dialysis compares concentrations on both sides of a semipermeable membrane.

Another data set addresses T1, mTGR5 (Mus musculus, UniProt Q80SS6).
T1 construct: expressed in transfected cells; host or cells: CHO-Pi10 clone 4
T1 sequence (Q80SS6 1-329): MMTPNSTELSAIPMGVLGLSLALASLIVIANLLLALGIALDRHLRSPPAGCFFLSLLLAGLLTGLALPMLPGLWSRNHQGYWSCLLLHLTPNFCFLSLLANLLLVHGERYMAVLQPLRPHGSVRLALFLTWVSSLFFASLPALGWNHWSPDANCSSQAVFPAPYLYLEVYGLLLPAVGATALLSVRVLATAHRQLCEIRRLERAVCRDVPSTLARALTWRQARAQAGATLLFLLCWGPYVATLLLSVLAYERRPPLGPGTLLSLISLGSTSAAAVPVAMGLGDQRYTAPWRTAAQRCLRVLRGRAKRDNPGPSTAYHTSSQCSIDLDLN
Briefly: TGR5 activity: cAMP in mTGR5 CHO-Pi10 clone 4 cells. The class given is cell-based. Conditions: mTGR5 CHO cells, value in parentheses; for Emax: 0.5 h, read-out: (mTGR5 CHO) Efficacy.

Data set [1] addresses T2, human glutathione transferase-tagged FXR-LBD (Homo sapiens, UniProt Q96RI1).
T2 construct: human glutathione transferase-tagged FXR-LBD (Life Technologies, USA); purchased Life Technologies, USA
T2 sequence (Q96RI1 262-486 limits assumed): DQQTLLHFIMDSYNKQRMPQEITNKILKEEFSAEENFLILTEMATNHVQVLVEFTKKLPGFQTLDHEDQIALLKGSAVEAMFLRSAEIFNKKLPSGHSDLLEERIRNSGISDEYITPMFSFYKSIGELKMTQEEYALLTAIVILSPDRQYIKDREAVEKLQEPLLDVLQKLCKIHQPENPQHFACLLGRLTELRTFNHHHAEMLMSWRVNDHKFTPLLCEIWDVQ
Put plainly: FXR AlphaScreen coactivator recruitment assay (human).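 As to hFXR Efficacy: CDCA at 50 µM taken as 100%.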 Type of data set: biochemical. Also noted: Emax: dose or concentration left out as unconfirmed. To be noted: for EC50: human FXR-LBD, AlphaScreen, read-out: hFXR EC50; for Emax: read-out: hFXR Efficacy. For orientation: Alpha assays give light when donor and acceptor beads are brought close together.

Data set [2] can be described thus: Lipophilicity, 1-octanol/water partition coefficient (shake-flask). The class given is physicochemical. Conditions: pH 8.00, ionized BA. The protocol:
The experiments were carried out on 1 mM initial bile salt solution buffered at pH 8.00 with 0.1 M potassium phosphate buffer to ensure complete ionization of the BA. BA concentration in the water phase before and after partition in 1-octanol was measured by HPLC-ESMS/MS as reported below.

The nature of data set [3]: Critical micellar concentration (surface tension / dye solubilization). Type of data set: physicochemical. To be noted: BA sodium salts in 0.1 M NaCl, 25° C. The protocol: In the first method, the surface tension was performed by maximum bubble-pressure method using a Sensadyne 6000 tensiometer (Chem-Dyne Research Corp., Milwaukee, Wis.). The surface tension of aqueous solutions at various concentrations (range 0.1-100 mM) of the BA sodium salts in 0.1 M NaCl was measured at 25° C. The surface tension values were plotted against the logarithm of the bile salt concentration; the regression lines corresponding to the two parts of the curve (monomeric and micellar phases) were calculated using the method of least squares. The critical micellar concentration (CMC) value (mM) was obtained by the intersection of the two lines.
The second method is based on the fact that some dyes, specifically Orange OT ([…]), are almost insoluble in water but dissolve in solutions with micellar aggregates that incorporate them; thus, the intensity of color of the solution increases with bile salt concentration (after CMC achievement). The amount of dye solubilized in relation to bile salt concentration was determined spectrophotometrically.
For each bile acid, various solution at different concentrations, between 50 mM and 0.1 mM with appropriate dilutions, were incubated under stirring at room temperature for 3 days with an excess of Orange OT. Then all the solutions were centrifuged and filtered through a 0.22 μm Millipore fiiter (Millipore Corp., Bedford, Mass.).

Data set [4] concerns the target T3, TGR5 (Homo sapiens, UniProt Q8TDU6).
T3 sequence (Q8TDU6 1-330): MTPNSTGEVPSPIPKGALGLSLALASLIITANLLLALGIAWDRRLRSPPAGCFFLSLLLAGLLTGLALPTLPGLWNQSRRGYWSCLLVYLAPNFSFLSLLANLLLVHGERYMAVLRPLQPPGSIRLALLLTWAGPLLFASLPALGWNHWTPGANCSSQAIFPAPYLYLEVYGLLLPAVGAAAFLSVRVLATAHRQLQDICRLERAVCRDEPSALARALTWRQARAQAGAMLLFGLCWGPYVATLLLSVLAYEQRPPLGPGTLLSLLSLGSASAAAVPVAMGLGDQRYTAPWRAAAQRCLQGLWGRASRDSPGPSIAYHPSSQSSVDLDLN
Put plainly: TGR5 activity: intracellular cAMP levels, NCI-H716 cells (HTR-FRET). Type of data set: cell-based. Also noted: endogenous in cells; host or cells: NCI-H716. Conditions: NCI-H716 cells; for Emax: 1 h, Ref. LCA 100% at 10 μM, read-out: TGR5 (NCI-H716) Efficacy; for EC50: cAMP. As for the experimental part: Activation of TGR5 was assessed by measuring the level of cAMP using an HTR-FRET assay. Thus, NCI-H716 cells were cultured on 96-well plates coated with Matrigel (Corning, USA) (0.75 mg/ml) in DMEM supplemented with 10% FCS, 100 units/ml penicillin, and 100 μg/ml streptomycin sulphate. […] The level of intracellular cAMP was determined with Lance kit. Z′ factor was used to validate assays.
A general note: cAMP levels reflect the balance of adenylyl cyclase and phosphodiesterase activity.

Data set [5] concerns the target T4, mouse glutathione transferase-tagged FXR-LBD (Mus musculus, UniProt Q60641).
T4 construct: mouse glutathione transferase-tagged FXR-LBD (generated in-house); made in house
T4 sequence (Q60641 264-488 limits assumed): T2 sequence (Q96RI1 262-486 limits assumed) with H7D, F8Y, N46S, V50I, S95A, S98A, N107K, I125V, I174M, H175Y
Briefly: FXR AlphaScreen coactivator recruitment assay (mouse). The class given is biochemical. Conditions: mouse FXR-LBD, value in parentheses; for EC50: read-out: (mFXR) EC50; for Emax: read-out: (mFXR) Efficacy.

Data set [6] has as its target T3, TGR5. Put plainly: TGR5 activity: cAMP in hTGR5 CHO-k1 cells. Also noted: expressed in transfected cells; host or cells: CHO-k1. Type of data set: cell-based. Conditions: hTGR5 CHO cells; for Emax: 0.5 h, Ref. LCA 100% at 10 μM, read-out: hTGR5 CHO Efficacy; for EC50: cAMP.
A short description of another data set: Water solubility. The class given is physicochemical. Conditions: simulated gastric fluid, thermodynamic from solid, 0.1 M HCl, pH 1.00, 25° C., read-out: Ws. As for the experimental part:
BA were suspended in 100 ml of 0.1 M HCl, pH 1.00, and the saturated solutions were transferred to a thermostat-equipped water bath maintained at 25° C. After incubation for 1 week, the solutions were filtered on a Millipore filter ([…]), and the concentration of BA was measured by HPLC-ESMS/MS as reported below.

Data set [7] in a line: Critical micellar concentration (surface tension / dye solubilization). Type of data set: physicochemical.

Where a chain is given by its changes, count along the chain named. ≈ marks a conversion by molar mass, not a printed value.

Sequence of bovine serum albumin (P02769 25-607): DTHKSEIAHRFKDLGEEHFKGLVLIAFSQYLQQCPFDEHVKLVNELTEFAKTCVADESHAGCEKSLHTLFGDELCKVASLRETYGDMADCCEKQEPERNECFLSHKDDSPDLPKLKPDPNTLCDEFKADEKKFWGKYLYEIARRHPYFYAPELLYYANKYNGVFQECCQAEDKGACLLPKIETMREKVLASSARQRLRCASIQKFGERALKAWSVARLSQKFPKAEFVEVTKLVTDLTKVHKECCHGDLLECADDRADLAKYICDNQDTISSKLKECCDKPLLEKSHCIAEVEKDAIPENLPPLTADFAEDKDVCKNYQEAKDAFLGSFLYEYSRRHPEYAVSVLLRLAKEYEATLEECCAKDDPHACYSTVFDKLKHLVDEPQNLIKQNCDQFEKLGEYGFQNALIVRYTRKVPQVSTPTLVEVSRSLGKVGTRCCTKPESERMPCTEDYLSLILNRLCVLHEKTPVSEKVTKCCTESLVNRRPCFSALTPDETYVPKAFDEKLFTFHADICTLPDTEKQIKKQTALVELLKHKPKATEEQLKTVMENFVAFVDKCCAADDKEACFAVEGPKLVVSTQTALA

For the compound `CC[C@H]1[C@@H](O)[C@@H]2[C@H](C[C@H](O)[C@]3(C)[C@@H]([C@H](C)C[C@@H](F)C(=O)O)CC[C@@H]23)[C@@]2(C)CC[C@@H](O)C[C@@H]12` [Compound 9, 3α,7α,12α-Trihydroxy-6α-ethyl-23(R)-fluoro-5β-cholan-24-oate], the “Albumin binding (%)” value on bovine serum albumin is given as 89%. The Emax on mTGR5 came to 90%; in data set [1] it was 147 ± 20%; at TGR5 [4], 75 ± 6%; in data set [5] it was 127%; at TGR5 [6] it was 98 ± 2%. Also, the EC50 (commonly the concentration giving half of the maximal effect) was 1800 nM on mTGR5; 2900 ± 900 nM in [1]; 22000 ± 3000 nM at TGR5 [4]; 55 µM in [5]; 1400 ± 300 nM at TGR5 [6]. Also, the “LogPA−” value in [2] amounted to 0.2. Besides, in data set [3], the CMC is listed as 6 mM. Besides, the solubility thermodynamic at 1 week in the data set “Water solubility” was 469 µM (≈ 213 µg/mL). This compound also came in with a CMpH in data set [7] of 3.9. In the data set “pKa”, the pKa (as a rule, the negative logarithm of the acid dissociation constant) came out at 2.82.
Turning to `CC[C@H]1[C@@H](O)C2C3CC[C@H]([C@H](C)CC(F)(F)C(=O)O)[C@@]3(C)CCC2[C@@]2(C)CC[C@@H](O)C[C@@H]12` (stereo partly drawn) [Compound 10, 3α,7α-Dihydroxy-6α-ethyl-23,23-gemdifluoro-5β-cholan-24-oic acid], the “Albumin binding (%)” value on bovine serum albumin was 66%. The Emax is 102% at mTGR5; 128 ± 4% in data set [1]; 125 ± 1% on TGR5 [4]; 143% in [5]; 103 ± 1% at TGR5 [6]. Moreover, the EC50 stood at 600 nM at mTGR5; 200 ± 40 nM in data set [1]; 1600 ± 200 nM on TGR5 [4]; 7.1 µM in [5]; 340 ± 40 nM on TGR5 [6]. Besides, in [2], the “LogPA−” value was determined as 1.4. For the same compound, in data set [3], the CMC is listed as 8.5 mM. Further, the solubility thermodynamic at 1 week in the data set “Water solubility” is 16 µM (≈ 7.31 µg/mL). In [7], this compound came in with a CMpH of 3.7. Also, in “pKa”, the pKa amounted to 1.1.
Turning to `CC[C@H]1[C@@H](O)C2C3CC[C@H]([C@H](C)CCc4noc(=O)[nH]4)[C@@]3(C)[C@@H](O)CC2[C@@]2(C)CC[C@@H](O)C[C@@H]12` (stereo partly drawn) [Compound 11, 3α,7α,12α-trihydroxy-6α-ethyl-24-nor-5β-23([1,2,4]-oxadiazole-3-one-5yl)-cholane], on bovine serum albumin, the “Albumin binding (%)” value came to 84%. Also, the Emax on mTGR5 is 108%; in [1] it was 140%; on TGR5 [4], 105%; in [5], 100%; at TGR5 [6], 96 ± 19%. Besides, the concentration giving a half-maximal response (EC50) on mTGR5 amounted to 1400 nM; in data set [1] it was 1000 nM; on TGR5 [4], 2000 nM; in [5], 7.7 µM; on TGR5 [6], 2700 ± 1800 nM. Moreover, the “LogPA−” value in data set [2] was 1.6. The CMC in data set [3] is listed as 5 mM. For the same compound, the solubility thermodynamic at 1 week in the data set “Water solubility” was 392 µM (≈ 187 µg/mL). In addition, the CMpH in [7] is 7.0. Further, in “pKa”, the pKa was 5.94.
Take `CC[C@H]1[C@@H](O)C2C3CC[C@H]([C@H](C)CCc4nn[nH]n4)[C@@]3(C)[C@@H](O)CC2[C@@]2(C)CC[C@@H](O)C[C@@H]12` (stereo partly drawn) [Compound 12, 3α,7α,12α-Trihydroxy-6α-ethyl-23-(tetrazol-5-yl)-24-nor-5β-cholane]: the “Albumin binding (%)” value at bovine serum albumin is on record as 83%. For the same compound, the Emax turned out to be 105% on mTGR5; 125 ± 15% in data set [1]; 104% on TGR5 [4]; 93% in [5]; 101 ± 1.4% at TGR5 [6]. Moreover, the concentration giving a half-maximal response (EC50) at mTGR5 stood at 840 nM; in data set [1], 1700 ± 600 nM; at TGR5 [4], 4000 nM; in data set [5], 12.7 µM; at TGR5 [6] it was 710 ± 80 nM. Further, the “LogPA−” value in data set [2] was 1.5. In data set [3], the CMC stood at 5 mM. In addition, the solubility thermodynamic at 1 week in the data set “Water solubility” is 517 µM (≈ 238 µg/mL). Besides, in [7], the CMpH came out at 6.6. Further, the pKa in the data set “pKa” was 5.59.
Regarding `CC[C@@H]1C2C[C@H](O)CC[C@]2(C)C2CC[C@@]3(C)C(CC[C@@H]3[C@H](C)Cc3nc(=O)o[nH]3)C2[C@@H]1O` (some centres unmarked) [Compound 14], the “Albumin binding (%)” value at bovine serum albumin is reported as 99%. The Emax was found to be 111% on mTGR5; 165 ± 15% in data set [1]; 110 ± 2% at TGR5 [4]; 264% in [5]; 107 ± 1% on TGR5 [6]. Further, the EC50 is 900 nM on mTGR5; 75 ± 10 nM in [1]; 1600 ± 300 nM on TGR5 [4]; 0.46 µM in [5]; 480 ± 300 nM on TGR5 [6]. Also, in [2], the “LogPA−” value came to 1.9. Further, the CMC in data set [3] came out at 10 mM. For the same compound, in “Water solubility”, the solubility thermodynamic at 1 week was 2020 µM (≈ 904 µg/mL). For the same compound, the CMpH in data set [7] stood at 5.0. In “pKa”, this compound showed a pKa of 5.

Source of the values: US10800807B2, “TGR5 modulators and methods of use thereof” (Intercept Pharmaceuticals, Inc., priority 2015, dated 2020).
